Each structure is given as a SMILES string. In brackets after ≈: the same amount, converted by molar mass.

This is an account of results in patent US6486191B2 (priority 1997, dated 2002).

One assay has as its system Penicillium brevicaule. The assay can be described thus: Material protection test (MIC on malt extract agar). It is filed as cell-based. To be noted: 336 h, two weeks at 27° C., 60 to 70% relative humidity, read-out: Minimum inhibitory concentration (MIC value).
A further assay has as its system Chaetomium globosum. The description is as above. To be noted: 336 h, two weeks at 27° C., 60 to 70% relative humidity, read-out: Minimum inhibitory concentration (MIC value). The format is cell-based.
The test system of another assay is Aspergillus niger. The description is as above. It is filed as cell-based. To be noted: 336 h, two weeks at 27° C., 60 to 70% relative humidity, read-out: Minimum inhibitory concentration (MIC value).
For assay [1], the system named is larvae of the horseradish beetle (Phaedon cochleariae). Nature of the assay: Phaedon larvae test. To be noted: cabbage leaves immersed, active substance concentration 0.1 % by weight. It is filed as in vivo. As to the method:
(§1) Solvent: 7 parts by weight of dimethylformamide
(§2) Emulsifier: 1 part by weight of alkylaryl polyglycol ether
For the preparation of an expedient fonnulation of active substance, 1 part by weight of active substance is mixed with the stated amounts of solvent and emulsifier, and the concentrate is diluted to the desired concentration with water.
Cabbage leaves (Brassica oleracea) are treated by immersion in the formulation of active substance of the desired concentration and infested with larvae of the horseradish beetle (Phaedon cochleariae) as long as the leaves are still moist.
After the desired time, the kill in % is determined. 100% means that all beetle larvae were killed; 0% means that no beetle larvae were killed.

Assay [2] relates to caterpillars of the diamondback moth (Plutella xylostella). The assay can be described thus: Plutella test. The format is in vivo. Particulars: cabbage leaves immersed, active substance concentration 0.1 % by weight. As to the method:
as §1, §2
For the preparation of an expedient formulation of active substance, 1 part by weight of active substance is mixed with the stated amounts of solvent and emulsifier, and the concentrate is diluted to the desired concentration with water.
Cabbage leaves (Brassica oleracea) are treated by immersion in the formulation of active substance of the desired concentration and infested with caterpillars of the diamondback moth (Plutella xylostella) as long as the leaves are still moist.
After the desired time, the kill in % is determined. 100% means that all caterpillars were killed; 0% means that no caterpillars were killed.

In the case of `Cc1ccc(S(=O)(=O)n2c(C#N)nc3cc4c(cc32)OC(F)(F)C(F)(F)O4)cc1[N+](=O)[O-]` [Example 2], the results for the MIC in the assay on Penicillium brevicaule, in the assay with Chaetomium globosum and with Aspergillus niger were 100 µg/mL (≈ 212 µM), 100 µg/mL (≈ 212 µM) and 200 µg/mL (≈ 423 µM), respectively.
In the case of `Cc1ccc([N+](=O)[O-])cc1S(=O)(=O)n1c(C#N)nc2cc3c(cc21)OC(F)(F)C(F)(F)O3` [drawing 68], the “Kill in % after 7 d” value in assay [1] is reported as 100%.
Regarding `Cc1ccc(S(=O)(=O)n2c(C#N)nc3cc4c(cc32)OC(F)(F)C(F)(F)O4)cc1[N+](=O)[O-]` [drawing 69], in assay [2], the “Kill in % after 7 d” value is reported as 100%.
Consider `Cc1ccc([N+](=O)[O-])cc1S(=O)(=O)n1c(C#N)nc2cc3c(cc21)OC(F)(F)C(F)(F)O3` [Example 5], for which the MIC was determined as 100 µg/mL (≈ 212 µM) in the assay on Penicillium brevicaule, 100 µg/mL (≈ 212 µM) in the assay with Chaetomium globosum and 200 µg/mL (≈ 423 µM) in the assay with Aspergillus niger.
As to `Cc1ccc([N+](=O)[O-])cc1S(=O)(=O)n1c(C#N)nc2cc3c(cc21)OC(F)(F)C(F)(F)O3` [drawing 70], the “Kill in % after 7 d” value in assay [2] was 100%.
`Cc1ccc(S(=O)(=O)n2c(C#N)nc3cc4c(cc32)OC(F)(F)C(F)(F)O4)cc1[N+](=O)[O-]` [drawing 67]: the “Kill in % after 7 d” value in assay [1] was 100%.
